In PubChem BioAssay (NCI):
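Briefly, cells in 96-well plates were exposed to five compound concentrations for 48 h, and endpoints were estimated by linear interpolation. GI50: concentration for 50% inhibition of growth. TGI denotes the concentration required for complete inhibition of growth.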

Legend:
Experiment in all cases: NCI tumour cell line growth inhibition, 48 h
[1] = system: 786-0 renal
[2] = system: A498 renal
[3] = system: A549 NSCLC
[4] = system: ACHN renal
[5] = system: BT-549 breast
[6] = system: CAKI-1 renal
[7] = system: CCRF-CEM leukemia
[8] = system: COLO 205 colon
[9] = system: DU-145 prostate
[10] = system: EKVX NSCLC
[11] = system: HCC-2998 colon
[12] = system: HCT-116 colon
[13] = system: HCT-15 colon
[14] = system: HL-60(TB) leukemia
[15] = system: HOP-62 NSCLC
[16] = system: HOP-92 NSCLC
[17] = system: HS 578T breast
[18] = system: HT29 colon
[19] = system: IGROV1 ovarian
[20] = system: K-562 leukemia
[21] = system: KM12 colon
[22] = system: LOX IMVI melanoma
[23] = system: M14 melanoma
[24] = system: MALME-3M melanoma
[25] = system: MCF7 breast
[26] = system: MDA-MB-231 breast
[27] = system: MDA-MB-435
[28] = system: MDA-MB-468 breast
[29] = system: MOLT-4 leukemia
[30] = system: NCI-H226 lung
[31] = system: NCI-H23 lung
[32] = system: NCI-H460 lung
[33] = system: NCI-H522 lung
[34] = system: NCI/ADR-RES ovarian
[35] = system: OVCAR-3 ovarian
[36] = system: OVCAR-4 ovarian
[37] = system: OVCAR-5 ovarian
[38] = system: OVCAR-8 ovarian
[39] = system: PC-3 prostate
[40] = system: RPMI-8226 leukemia
[41] = system: RXF 393 renal
[42] = system: SF-268 CNS
[43] = system: SF-295 CNS
[44] = system: SF-539 CNS
[45] = system: SK-MEL-2 melanoma
[46] = system: SK-MEL-28 melanoma
[47] = system: SK-MEL-5 melanoma
[48] = system: SK-OV-3 ovarian
[49] = system: SN12C renal
[50] = system: SNB-19 CNS
[51] = system: SNB-75 CNS
[52] = system: SR leukemia
[53] = system: SW-620 colon
[54] = system: T-47D breast
[55] = system: TK-10 renal
[56] = system: U251 CNS
[57] = system: UACC-257 melanoma
[58] = system: UACC-62 melanoma
[59] = system: UO-31 renal

O=C(NO)c1ccc(Cn2ccc3c(NCc4ccccc4)ncnc32)cc1
GI50 [1]: 8.63 µM | TGI [1]: 26.6 µM | GI50 [2]: 2.28 µM | TGI [2]: 10.2 µM | GI50 [3]: 4.34 µM | TGI [3]: 20.6 µM | GI50 [4]: 4.07 µM | TGI [4]: 15.2 µM | GI50 [5]: 13.7 µM | TGI [5]: 31.7 µM | GI50 [6]: 3.21 µM | TGI [6]: 15.2 µM | GI50 [7]: 3.72 µM | TGI [7]: 58.7 µM | GI50 [8]: 2.43 µM | TGI [8]: 6.24 µM | GI50 [9]: 4.06 µM | TGI [9]: > 103 µM | GI50 [10]: 5.93 µM | TGI [10]: 19.8 µM | GI50 [11]: 4.5 µM | TGI [11]: 17.1 µM | GI50 [12]: 3.4 µM | TGI [12]: 24.9 µM | GI50 [13]: 3.09 µM | TGI [13]: 15.2 µM | GI50 [14]: 2.34 µM | TGI [14]: 6.38 µM | GI50 [15]: 4.13 µM | TGI [15]: 20.9 µM | GI50 [16]: 4.07 µM | TGI [16]: 18.5 µM | GI50 [17]: 2.27 µM | TGI [17]: 7.62 µM | GI50 [18]: 2.48 µM | TGI [18]: 6.93 µM | GI50 [19]: 4.14 µM | TGI [19]: 14.7 µM | GI50 [20]: 2.03 µM | TGI [20]: > 103 µM | GI50 [21]: 3.19 µM | TGI [21]: 12.7 µM | GI50 [22]: 4.2 µM | TGI [22]: 16.1 µM | GI50 [23]: 4.12 µM | TGI [23]: 20.2 µM | GI50 [24]: 1.99 µM | TGI [24]: 9.52 µM | GI50 [25]: 3.25 µM | TGI [25]: 22.8 µM | GI50 [26]: 5.2 µM | TGI [26]: 22 µM | GI50 [27]: 0.562 µM | TGI [27]: 2.26 µM | GI50 [28]: 2.12 µM | TGI [28]: 6.05 µM | GI50 [29]: 2.41 µM | TGI [29]: 10.3 µM | GI50 [30]: 4.17 µM | TGI [30]: 25.5 µM | GI50 [31]: 4.8 µM | TGI [31]: 17.2 µM | GI50 [32]: 3.12 µM | TGI [32]: 19.1 µM | GI50 [33]: 1.93 µM | TGI [33]: 7.69 µM | GI50 [34]: 2.6 µM | TGI [34]: 12.7 µM | GI50 [35]: 2.17 µM | TGI [35]: 5.23 µM | GI50 [36]: 12.2 µM | TGI [36]: 96.2 µM | GI50 [37]: 2.57 µM | TGI [37]: 10.1 µM | GI50 [38]: 3.1 µM | TGI [38]: 14.4 µM | GI50 [39]: 4.35 µM | TGI [39]: 97.9 µM | GI50 [40]: 2.9 µM | TGI [40]: > 103 µM | GI50 [41]: 1.94 µM | TGI [41]: 5.63 µM | GI50 [42]: 8.8 µM | TGI [42]: 36.5 µM | GI50 [43]: 3.49 µM | TGI [43]: 12.7 µM | GI50 [44]: 2.64 µM | TGI [44]: 9.8 µM | GI50 [45]: 4.58 µM | TGI [45]: 18.7 µM | GI50 [46]: 3.77 µM | TGI [46]: 17.5 µM | GI50 [47]: 1.9 µM | TGI [47]: 6.37 µM | GI50 [48]: 3.27 µM | TGI [48]: 15.6 µM | GI50 [49]: 4.41 µM | TGI [49]: 17.3 µM | GI50 [50]: 5.81 µM | TGI [50]: 20.6 µM | GI50 [51]: 1.25 µM | TGI [51]: 5.36 µM | GI50 [52]: 0.937 µM | TGI [52]: > 103 µM | GI50 [53]: 2.22 µM | TGI [53]: 6.49 µM | GI50 [54]: 3.13 µM | TGI [54]: 21.8 µM | GI50 [55]: 3.2 µM | TGI [55]: 17.8 µM | GI50 [56]: 3.21 µM | TGI [56]: 15.2 µM | GI50 [57]: 2.39 µM | TGI [57]: 15.1 µM | GI50 [58]: 2.39 µM | TGI [58]: 12.2 µM | GI50 [59]: 3.93 µM | TGI [59]: 16.6 µM
